The source of these data is US20230272401A1, “COMPOSITIONS FOR FLCN GENE MODULATION AND METHODS THEREOF” (GENETIC INTELLIGENCE, INC, priority 2020, published 2023).

e = 2'-O-(2-methoxyethyl) (MOE); d = 2'-deoxy (DNA); m = 2'-O-methyl

This data set concerns human FLCN protein. As to the kind of experiment: Antisense inhibition of human FLCN in HEK293T cells, IC50 (Western blot). Format: cell-based. Particulars: 0 nM to 100 nM ASO, Lipofectamine, 2-day incubation, FLCN protein by Western blot. From the text: The antisense oligonucleotides listed in this example have all nucleosides linked by modified phosphorothioate backbones. Bolded nucleosides presented in Table 17 indicate nucleosides that are modified with a 2′-MOE sugar modification. Underlined nucleosides presented in Table 17 indicate non-modified DNA nucleosides (deoxynucleotides). Nucleosides that are italicized indicate nucleosides with a 2′-OMe sugar modification. GI81, GI84, GI85, GI86, GI88, GI89 and GI90 are gapped sequences comprising a central sequence of deoxynucleotides, which are flanked on both sides by wing sequences consisting of 2′-MOE modified nucleotides, wherein the second nucleotide of the central sequence from the 5′ end of the oligonucleotide contains a 2′-OMe sugar modification.
These antisense oligonucleotides were tested in the human cell line HEK293T. HEK293T cells were seeded at 400,000 cells per well in a 6-well plate. After 1 day, various concentrations of antisense oligonucleotides ranging from 0 nM to 100 nM were transfected into the cells using Lipofectamine. After a 2-day incubation period, the cells were harvested to obtain whole cell lysates. The whole cell lysates were analyzed by Western blot and probed with a FLCN-specific antibody (CST #3697). The intensity of Western blot bands were quantified by FIJI (Image J) and used to quantify the expression levels of FLCN. The relative expression values of FLCN for the different treatment groups were calculated by normalizing with their respective α-Tubulin loading control, and presented as a percentage to that of the untreated control (which in this case comprised cells not transfected with ASOs). The potencies of these antisense oligonucleotides are reported in the form of IC50 values in Table 17.
As for “GI90: gapped phosphorothioate ASO, 2′-MOE wings, 2′-OMe at second gap nucleotide, CGGGTGCCCTGCAGCAAG, Exon 5, SEQ ID NO 618 (sugars from the 5' end e4 d1 m1 d8 e4, all phosphorothioate, methylation of C not given here)”, the IC50 turned out to be 35 nM.
In turn, “GI88: gapped phosphorothioate ASO, 2′-MOE wings, 2′-OMe at second gap nucleotide, GCCTGGCGGACAATGCTG, Exon 5, SEQ ID NO 616 (sugars from the 5' end e4 d1 m1 d8 e4, all phosphorothioate, methylation of C not given here)” returned a concentration for half-maximal inhibition (IC50) of 19 nM.
In the case of “GI81: gapped phosphorothioate ASO, 2′-MOE wings, 2′-OMe at second gap nucleotide, TGGCTGATATATCCCGGG, Exon 5, SEQ ID NO 21 (sugars from the 5' end e4 d1 m1 d8 e4, all phosphorothioate, methylation of C not given here)”, half-maximal inhibition (IC50) required 14 nM.
